Results reported in PMC5577655 (mSphere, 2017).
Like-named read-outs stand apart in the source and are kept apart here.

Legend:
[1] = molecular target: T1, lysyl-tRNA synthetase 1 (LdLysRS-1) (Leishmania donovani, UniProt A0A3Q8IA00); assay: malachite green aminoacylation assay with recombinant enzyme; thermal shift of ~[…]°C; format: biochemical
T1 construct: gene LdCL_150007600; full-length LdLysRS-1 (586 aa), N-terminal His6 tag

[2] = molecular target: T1, lysyl-tRNA synthetase 1 (LdLysRS-1); assay: as above; format: biochemical; remark: listed apart in the source

T1 sequence (A0A3Q8IA00 entry or part of it): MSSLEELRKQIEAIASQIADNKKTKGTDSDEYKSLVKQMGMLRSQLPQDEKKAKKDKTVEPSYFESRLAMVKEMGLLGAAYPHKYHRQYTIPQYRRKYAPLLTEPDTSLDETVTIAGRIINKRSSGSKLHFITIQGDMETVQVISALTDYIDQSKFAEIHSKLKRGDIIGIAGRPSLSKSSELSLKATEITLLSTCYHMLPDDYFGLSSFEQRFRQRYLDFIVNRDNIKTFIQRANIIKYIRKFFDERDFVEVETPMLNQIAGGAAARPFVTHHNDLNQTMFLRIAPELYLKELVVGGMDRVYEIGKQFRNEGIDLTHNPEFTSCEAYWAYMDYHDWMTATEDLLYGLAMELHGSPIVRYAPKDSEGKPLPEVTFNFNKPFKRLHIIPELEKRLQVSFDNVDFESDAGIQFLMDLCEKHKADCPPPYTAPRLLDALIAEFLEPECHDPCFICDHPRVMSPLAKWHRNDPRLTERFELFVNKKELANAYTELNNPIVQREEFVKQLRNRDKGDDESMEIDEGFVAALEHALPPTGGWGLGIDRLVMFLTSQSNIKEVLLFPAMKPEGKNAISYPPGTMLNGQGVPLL

IC50 [1] [µM] | IC50 [2] [µM] | SMILES
~4.07 | – | C[C@H]1CCC[C@H](C[C@H]2Cc3cc(O)cc(O)c3C(=O)O2)O1 [cladosporin]
– | ~25.5 | C[C@@H]1CCC[C@H](C[C@@H]2Cc3cc(O)cc(O)c3C(=O)O2)O1 [3-epi-isocladosporin]
